# Literature values as cited in patent publication US10794912B2 (priority 2017, dated 2020).
# Details: in vivo
compound,measurement,value
C[C@@H]1Cc2c(Cl)cc(C(=O)N[C@@H](Cc3ccccc3)C(=O)O)c(O)c2C(=O)O1 [ochratoxin A],time to death,5 to 6 days
